*1 amine or outer side, *2 acyl side, *3 side chain or, on linkers, in order; H or OH if unused. Where a SMILES comes first, the peptide text is derived from it. [ ]: non-standard residue; d: D form. Trp(4-Cl)(βS-Me) = C[C@@H](c1c[nH]c2cccc(Cl)c12)[C@H](N)C(=O)O; Trp(βS-Me,4-F) = C[C@@H](c1c[nH]c2cccc(F)c12)[C@H](N)C(=O)O; Bip(4'-COOH) = N[C@@H](Cc1ccc(-c2ccc(C(=O)O)cc2)cc1)C(=O)O; Phe(3-CH2NH2) = O=C([C@H](Cc1cccc(CN[*:3])c1)N[*:1])[*:2]; X2 = O=C(O)c1ccc(-c2ccc(C[C@H](N[*:1])C(=O)[*:2])cn2)cc1; X1 = CC(=O)N1CCN(c2ccc(C[C@H](N[*:1])C(=O)[*:2])cn2)CC1; X3 = CC(=O)N1CCN(c2ncc(C[C@H](N[*:1])C(=O)[*:2])cn2)CC1; 1Nal(3S-Me) = C[C@@H](c1cccc2ccccc12)[C@H](N)C(=O)O; Phe(4-COOH) = N[C@@H](Cc1ccc(C(=O)O)cc1)C(=O)O; h3Pal(5-CN) = N#Cc1cncc(CC[C@H](N)C(=O)O)c1; Pro(4R-NH2) = N[C@H]1CN[C@H](C(=O)O)C1; 1Nal = N[C@@H](Cc1cccc2ccccc12)C(=O)O; AEF = NCCOc1ccc(C[C@H](N)C(=O)O)cc1; hTyr = N[C@@H](CCc1ccc(O)cc1)C(=O)O; 4Pal = N[C@@H](Cc1ccncc1)C(=O)O; Orn = NCCC[C@H](N)C(=O)O; dNMeA = CN[C@H](C)C(=O)O; Dap = NC[C@H](N)C(=O)O; Aib = CC(C)(N)C(=O)O
These compounds were tested against T1, Recombinant human IL-1β (Homo sapiens, UniProt P01584) (assay: IL-6 assay in MRC5 cells: inhibition of IL-1β induced IL-6 secretion (AlphaLISA)). Settings: inhibition of IL-1β induced IL-6 secretion in MRC5 cells; IL-1β pre-incubated 1 hour with compound; read-out: MRC5 IC50.
T1 construct: purchased BioLegend 579404
Format: cell-based
Summary of the method: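 IL-1β at 2×EC80 in seeding medium (EMEM, 0.025% BSA) preincubated 1 h at ambient temperature with compound, then 3000 MRC5 cells/well added and incubated overnight at 37 °C, 5% CO2. IL-6 in conditioned medium quantified by AlphaLISA; IC50 from 4-parameter logistic fit.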

T1 sequence (P01584 117-269): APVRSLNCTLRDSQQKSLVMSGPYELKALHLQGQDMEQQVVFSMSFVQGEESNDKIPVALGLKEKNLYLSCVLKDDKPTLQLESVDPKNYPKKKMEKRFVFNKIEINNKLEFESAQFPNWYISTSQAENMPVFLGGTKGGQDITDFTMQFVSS

IC50 [nM]	SMILES
0.256	CC(=O)NCCOc1ccc(C[C@@H]2NC(=O)[C@H](CCc3ccc(O)cc3)NC(=O)C(C)(C)NC(=O)[C@H](CCCN)NC(=O)[C@H](Cc3cccc4ccccc34)NC(=O)[C@H](Cc3ccc(-c4ccc(C(=O)O)cc4)cc3)NC(=O)CNC(=O)[C@@H](C)N(C)C(=O)[C@H](CC(=O)O)NC(=O)[C@H]([C@@H](C)c3cccc4ccccc34)NC(=O)[C@@H]3C[C@@H](N)CN3C(=O)CNC(=O)[C@H](Cc3ccc(C(=O)O)cc3)NC(=O)[C@H](Cc3c[nH]c4ccccc34)NC2=O)cc1 [Example 99] (cyclo([AEF](Ac)W[Phe(4-COOH)]G[Pro(4R-NH2)][1Nal(3S-Me)]D[dNMeA]G[Bip(4'-COOH)][1Nal][Orn][Aib][hTyr]))
0.0908	C[C@@H]1C(=O)NCC(=O)N[C@@H](Cc2ccc(-c3ccc(C(=O)O)cc3)cc2)C(=O)N[C@@H](Cc2c[nH]c3ccccc23)C(=O)N[C@@H](CN)C(=O)N[C@H](C)C(=O)N[C@@H](CCc2ccc(O)cc2)C(=O)N[C@@H](Cc2ccc(-c3ccc(C(=O)O)cc3)nc2)C(=O)N[C@@H](Cc2c[nH]c3ccccc23)C(=O)N[C@@H](Cc2ccc(C(=O)O)cc2)C(=O)NCC(=O)N2C[C@H](N)C[C@H]2C(=O)N[C@@H]([C@@H](C)c2cccc3ccccc23)C(=O)N[C@@H](CC(=O)O)C(=O)N1C [Example 11] (cyclo([X2]W[Phe(4-COOH)]G[Pro(4R-NH2)][1Nal(3S-Me)]D[dNMeA]G[Bip(4'-COOH)]W[Dap][dA][hTyr]))

The next lines start with the compound.

SMILES	IC50 [nM]
CC(=O)N1CCN(c2ncc(C[C@@H]3NC(=O)[C@H](CCc4ccc(O)cc4)NC(=O)[C@@H](C)NC(=O)[C@H](CN)NC(=O)[C@H](Cc4c[nH]c5ccccc45)NC(=O)[C@H](Cc4ccc(-c5ccc(C(=O)O)cc5)cc4)NC(=O)CNC(=O)[C@@H](C)N(C)C(=O)[C@H](CC(=O)O)NC(=O)[C@H]([C@@H](C)c4cccc5ccccc45)NC(=O)[C@@H]4C[C@@H](N)CN4C(=O)CNC(=O)[C@H](Cc4ccc(C(=O)O)cc4)NC(=O)[C@H](Cc4c[nH]c5ccccc45)NC3=O)cn2)CC1 [Example 88] (cyclo([X3]W[Phe(4-COOH)]G[Pro(4R-NH2)][1Nal(3S-Me)]D[dNMeA]G[Bip(4'-COOH)]W[Dap][dA][hTyr]))	0.0945
C[C@@H]1C(=O)NCC(=O)N[C@@H](Cc2ccc(-c3ccc(C(=O)O)cc3)cc2)C(=O)N[C@@H](Cc2cccc(CN)c2)C(=O)N[C@@H](CO)C(=O)N[C@H](C)C(=O)N[C@@H](CCc2ccc(O)cc2)C(=O)N[C@@H](Cc2ccc(-c3ccc(C(=O)O)cc3)cc2)C(=O)N[C@@H](Cc2c[nH]c3ccccc23)C(=O)N[C@@H](Cc2ccc(C(=O)O)cc2)C(=O)NCC(=O)N2C[C@H](N)C[C@H]2C(=O)N[C@@H]([C@@H](C)c2c[nH]c3cccc(F)c23)C(=O)N[C@@H](CC(=O)O)C(=O)N1C [Example 74] (cyclo([Bip(4'-COOH)]W[Phe(4-COOH)]G[Pro(4R-NH2)][Trp(βS-Me,4-F)]D[dNMeA]G[Bip(4'-COOH)][Phe(3-CH2NH2)]S[dA][hTyr]))	0.296
CC(C)C[C@@H]1NC(=O)[C@H](Cc2cccc3ccccc23)NC(=O)[C@H](Cc2ccc(-c3ccc(C(=O)O)cc3)cc2)NC(=O)CNC(=O)[C@@H](C)N(C)C(=O)[C@H](CC(=O)O)NC(=O)[C@H]([C@@H](C)c2c[nH]c3cccc(Cl)c23)NC(=O)[C@@H]2C[C@@H](N)CN2C(=O)CNC(=O)[C@H](Cc2ccc(C(=O)O)cc2)NC(=O)[C@H](Cc2c[nH]c3ccccc23)NC(=O)[C@H](Cc2ccc(-c3ccc(C(=O)O)cc3)cc2)NC(=O)CNC(=O)C(C)(C)NC1=O [Example 35] (cyclo([Bip(4'-COOH)]W[Phe(4-COOH)]G[Pro(4R-NH2)][Trp(4-Cl)(βS-Me)]D[dNMeA]G[Bip(4'-COOH)][1Nal]L[Aib]G))	0.16
CC(=O)N1CCN(c2ccc(C[C@@H]3NC(=O)[C@H](CCc4cncc(C#N)c4)NC(=O)[C@@H](C)NC(=O)[C@H](CN)NC(=O)[C@H](Cc4c[nH]c5ccccc45)NC(=O)[C@H](Cc4ccc(-c5ccc(C(=O)O)cc5)cc4)NC(=O)CNC(=O)[C@@H](C)N(C)C(=O)[C@H](CC(=O)O)NC(=O)[C@H]([C@@H](C)c4cccc5ccccc45)NC(=O)[C@@H]4C[C@@H](N)CN4C(=O)CNC(=O)[C@H](Cc4ccc(C(=O)O)cc4)NC(=O)[C@H](Cc4c[nH]c5ccccc45)NC3=O)cn2)CC1 [Example 4] (cyclo([X1]W[Phe(4-COOH)]G[Pro(4R-NH2)][1Nal(3S-Me)]D[dNMeA]G[Bip(4'-COOH)]W[Dap][dA][h3Pal(5-CN)]))	0.0438

Same assay, conditions: inhibition of IL-1β induced IL-6 secretion in MRC5 cells; read-out: MRC5 IC50

IC50 [nM]	SMILES
0.31	CC(=O)NCCOc1ccc(C[C@@H]2NC(=O)[C@H](CCc3ccc(O)cc3)NC(=O)[C@@H](C)NC(=O)[C@H](CC(C)C)NC(=O)[C@H](Cc3ccncc3)NC(=O)[C@H](Cc3ccc(-c4ccc(C(=O)O)cc4)cc3)NC(=O)CNC(=O)[C@@H](C)N(C)C(=O)[C@H](CC(=O)O)NC(=O)[C@H]([C@@H](C)c3c[nH]c4cccc(Cl)c34)NC(=O)[C@@H]3C[C@@H](N)CN3C(=O)CNC(=O)[C@H](Cc3ccc(C(=O)O)cc3)NC(=O)[C@H](Cc3c[nH]c4ccccc34)NC2=O)cc1 [Example 135] (cyclo([AEF](Ac)W[Phe(4-COOH)]G[Pro(4R-NH2)][Trp(4-Cl)(βS-Me)]D[dNMeA]G[Bip(4'-COOH)][4Pal]L[dA][hTyr]))

— patent publication US20230406885A1, “CYCLIC PEPTIDES FOR TRAPPING INTERLEUKIN-1 BETA” (MERCK SHARP & DOHME LLC, priority 2022, published 2023)
